Measured values: patent US20260117174A1, “PRODUCTION METHOD OF THREE-DIMENSIONAL CELL CULTURE, CULTURE METHOD OF THREE-DIMENSIONAL CELL CULTURE, THREE-DIMENSIONAL CELL CULTURE, AND EVALUATION METHOD OF TEST SUBSTANCE” (FUJIFILM Corporation, priority 2023, published 2026)

System: three-dimensional co-culture of astrocytes, neurons and microglia
Assay: Intercellular interactions during neuroinflammation: NF-κB p65 immunostaining of the three-dimensional co-culture after LPS treatment
Assay type: cell-based, human
Conditions: 100 ng/ml final concentration; fixed 0, 0.5, 1, 3, 6 and 24 hours after treatment; co-culture cultured for 3 weeks
Protocol: • The three-dimensional co-culture that had been cultured for 3 weeks was treated with Lipopolysaccharide (LPS) from E. coli 0127 (FUJIFILM Wako Pure Chemical Corporation, 124-05151) such that the final concentration was 100 ng/ml, and fixed by treating, for 30 minutes, with a 4% paraformaldehyde-phosphate buffer solution (FUJIFILM Wako Pure Chemical Corporation, 161-20141) at 0, 0.5, 1, 3, 6, and 24 hours after the treatment. After washing with PBS(-), the co-culture was treated with Triton (registered trademark) X-100 solution (BioVision, 2104-100) diluted to 0.4% with PBS(-) for 15 minutes to perform permeation treatment. After the permeation treatment, the co-culture was treated with a BSA solution (Sigma-Aldrich, A416) adjusted at a concentration of 4% with PBS(-) for 30 minutes to perform blocking. […] After washing with PBS(-), imaging was performed with a confocal quantitative image cytometer CQ1 (Yokogawa Electric Corporation, Cell Voyager (registered trademark) CQ1) to acquire images.

Lipopolysaccharide [LPS]
nuclear localization of NF-κB after the LPS treatment: change in nuclear localization of NF-κB
